Source: PMC5520195 (Acta Pharmacologica Sinica, 2017)

Experiments:
[1] = Plasma pharmacokinetics of DOX after iv administration; assay type: in vivo; conditions: DOX in plasma, BALB/c mice, 5 mg DOX/kg
[2] = tested on: 4T1.2 mouse breast cancer cells; assay: MTT cytotoxicity assay; assay type: cell-based; conditions: 4T1.2 cells, 72 h

AUC0–infinity [1]: 2930 ng·h/mL | CL [1]: 28.8 mL/min/kg | Cmax [1]: 6270 ng/mL
Compound: COc1cccc2c1C(=O)c1c(O)c3c(c(O)c1C2=O)C[C@@](O)(C(=O)CO)C[C@@H]3O[C@H]1C[C@H](N)[C@H](O)[C@H](C)O1 [DOX, doxorubicin]
cytotoxicity (MTT) [2]: cytotoxic effect on tumor cells in a concentration-dependent manner
